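All cell lines were grown in 96-well plates and treated with compound for 48 hours. GI50 = concentration required for 50% inhibition of growth.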 Active and inactive are the calls of the source. Rule as the data show it: active = GI50 up to about 1.1 µM and inactive = higher.
Columns and labels:
Assay in all cases: NCI tumour cell line growth inhibition, 48 h
OVCAR-3 = system: OVCAR-3
K562 = system: K562
SK-MEL-2 = system: SK-MEL-2
SNB-75 = system: SNB-75
UACC-62 = system: UACC-62
KM12 = system: KM12
TK-10 = system: TK-10
MDA-MB-231 = system: MDA-MB-231
UACC-257 = system: UACC-257
NCI-H522 = system: NCI-H522
OVCAR-8 = system: OVCAR-8
SW-620 = system: SW-620
786-0 = system: 786-0
SK-OV-3 = system: SK-OV-3
SK-MEL-5 = system: SK-MEL-5
HCT-15 = system: HCT-15
RPMI-8226 = system: RPMI-8226
ACHN = system: ACHN
HOP-62 = system: HOP-62

| Compound | GI50 (OVCAR-3) | GI50 (K562) | GI50 (SK-MEL-2) | GI50 (SNB-75) | GI50 (UACC-62) | GI50 (KM12) | GI50 (TK-10) | GI50 (MDA-MB-231) | GI50 (UACC-257) | GI50 (NCI-H522) | GI50 (OVCAR-8) | GI50 (SW-620) | GI50 (786-0) | GI50 (SK-OV-3) | GI50 (SK-MEL-5) | GI50 (HCT-15) [µM] | GI50 (RPMI-8226) | GI50 (ACHN) | GI50 (HOP-62) |
| --- | --- | --- | --- | --- | --- | --- | --- | --- | --- | --- | --- | --- | --- | --- | --- | --- | --- | --- | --- |
| COc1cc2c(cc1OCc1ccccc1)NC(=S)[C@@H]1CCCN1C2=S | 43.1 µM (inactive) | 45.2 µM (inactive) | > 100 µM (inactive) | 15 µM (inactive) | > 100 µM (inactive) | 30.1 µM (inactive) | > 100 µM (inactive) | 85.3 µM (inactive) | > 100 µM (inactive) | 71.6 µM (inactive) | 12.3 µM (inactive) | > 100 µM (inactive) | 88.1 µM (inactive) | > 100 µM (inactive) | 62.8 µM (inactive) | > 100 | > 100 µM (inactive) | > 100 µM (inactive) | 5.85 µM (inactive) |
| O=C(NCCN1CCCCC1)c1ccc(Br)cc1 | > 100 µM (inactive) | > 100 µM (inactive) | > 100 µM (inactive) | 54.3 µM (inactive) | – | > 100 µM (inactive) | > 100 µM (inactive) | > 100 µM (inactive) | > 100 µM (inactive) | > 100 µM (inactive) | > 100 µM (inactive) | > 100 µM (inactive) | > 100 µM (inactive) | > 100 µM (inactive) | > 100 µM (inactive) | > 100 | > 100 µM (inactive) | > 100 µM (inactive) | > 100 µM (inactive) |
| CN(C)c1ccc(/C=C/C(=O)N[C@@H]2C(=O)N3[C@@H]2SC(C)(C)[C@@H]3C(=O)O)cc1 | > 100 µM (inactive) | > 100 µM (inactive) | > 100 µM (inactive) | > 100 µM (inactive) | > 100 µM (inactive) | > 100 µM (inactive) | > 100 µM (inactive) | > 100 µM (inactive) | > 100 µM (inactive) | > 100 µM (inactive) | > 100 µM (inactive) | > 100 µM (inactive) | > 100 µM (inactive) | – | > 100 µM (inactive) | > 100 | > 100 µM (inactive) | > 100 µM (inactive) | > 100 µM (inactive) |
| NC(=O)NNCc1ccccc1 | > 100 µM (inactive) | > 100 µM (inactive) | > 100 µM (inactive) | – | > 100 µM (inactive) | > 100 µM (inactive) | > 100 µM (inactive) | > 100 µM (inactive) | > 100 µM (inactive) | > 100 µM (inactive) | > 100 µM (inactive) | > 100 µM (inactive) | > 100 µM (inactive) | > 100 µM (inactive) | > 100 µM (inactive) | > 100 | > 100 µM (inactive) | > 100 µM (inactive) | > 100 µM (inactive) |
| C=CS(=O)(=O)CCN1CC1 | > 10 µM (inactive) | > 10 µM (inactive) | – | > 10 µM (inactive) | > 10 µM (inactive) | > 10 µM (inactive) | > 10 µM (inactive) | > 10 µM (inactive) | > 10 µM (inactive) | > 10 µM (inactive) | > 10 µM (inactive) | > 10 µM (inactive) | > 10 µM (inactive) | > 10 µM (inactive) | > 10 µM (inactive) | > 10 | > 10 µM (inactive) | > 10 µM (inactive) | > 10 µM (inactive) |
| COc1cc(OC)c(OC)cc1/C=C1\C=Cc2ccccc21 | – | 5.5 µM (inactive) | > 10 µM (inactive) | 2.04 µM (inactive) | – | 10.3 µM (inactive) | 17.3 µM (inactive) | 12.6 µM (inactive) | 16.3 µM (inactive) | 12.1 µM (inactive) | 31.7 µM (inactive) | 11.1 µM (inactive) | 28.1 µM (inactive) | 19.7 µM (inactive) | 11.1 µM (inactive) | 12.4 | 10.8 µM (inactive) | 27.1 µM (inactive) | 15.9 µM (inactive) |
| Brc1ccc2c(c1)-c1nc3nc4c(cc3cc1CC2)CCc1ccc(Br)cc1-4 | > 100 µM (inactive) | > 100 µM (inactive) | > 100 µM (inactive) | > 100 µM (inactive) | – | 62.7 µM (inactive) | > 100 µM (inactive) | > 100 µM (inactive) | > 100 µM (inactive) | > 100 µM (inactive) | > 100 µM (inactive) | > 100 µM (inactive) | > 100 µM (inactive) | > 100 µM (inactive) | > 100 µM (inactive) | > 100 | > 100 µM (inactive) | > 100 µM (inactive) | > 100 µM (inactive) |
| COC(=O)Nc1nc2cc(NS(=O)(=O)c3ccc(Cl)cc3)ccc2[nH]1 | 3.29 µM (inactive) | 6.3 µM (inactive) | 6.37 µM (inactive) | 2.35 µM (inactive) | 6.71 µM (inactive) | 3.61 µM (inactive) | 2.7 µM (inactive) | 8.34 µM (inactive) | – | 3.4 µM (inactive) | 13 µM (inactive) | 5.11 µM (inactive) | 17.7 µM (inactive) | 12.2 µM (inactive) | 3.99 µM (inactive) | 6.44 | 6.75 µM (inactive) | 14.2 µM (inactive) | 10.7 µM (inactive) |
| CC(=O)N(C(C)=O)n1nc2c(n1)C(=O)c1ccccc1C2=O | 28.1 µM (inactive) | – | > 100 µM (inactive) | – | > 100 µM (inactive) | > 100 µM (inactive) | > 100 µM (inactive) | > 100 µM (inactive) | 81.5 µM (inactive) | > 100 µM (inactive) | > 100 µM (inactive) | > 100 µM (inactive) | > 100 µM (inactive) | > 100 µM (inactive) | > 100 µM (inactive) | > 100 | > 100 µM (inactive) | > 100 µM (inactive) | > 100 µM (inactive) |
| S=C(Nc1ccc(Br)cn1)NC12CC3CC(CC(C3)C1)C2 | 46.3 µM (inactive) | > 100 µM (inactive) | 22.3 µM (inactive) | 13.9 µM (inactive) | 17.5 µM (inactive) | > 100 µM (inactive) | – | 17.8 µM (inactive) | 25.1 µM (inactive) | 11.2 µM (inactive) | 7.57 µM (inactive) | 49.2 µM (inactive) | 8.05 µM (inactive) | 23.1 µM (inactive) | – | 68.7 | 65.2 µM (inactive) | 13.2 µM (inactive) | 23.9 µM (inactive) |
| COc1ccc(CC2CCc3nc(N)nc(N)c3C2)cc1OC (stereo not drawn) | 5.47 µM (inactive) | 18.3 µM (inactive) | > 57.3 µM (inactive) | 1.46 µM (inactive) | 0.0612 µM (active) | 1.28 µM (inactive) | 7.6 µM (inactive) | 12.9 µM (inactive) | 15.3 µM (inactive) | 0.489 µM (active) | 14.6 µM (inactive) | 6.03 µM (inactive) | 0.0551 µM (active) | – | 0.4 µM (active) | 0.104 | 13.1 µM (inactive) | 0.16 µM (active) | 13.7 µM (inactive) |
| O=C(OCc1ccccc1)N1CCNCCNCC1 | > 100 µM (inactive) | > 100 µM (inactive) | > 100 µM (inactive) | – | > 100 µM (inactive) | > 100 µM (inactive) | > 100 µM (inactive) | > 100 µM (inactive) | > 100 µM (inactive) | > 100 µM (inactive) | > 100 µM (inactive) | > 100 µM (inactive) | > 100 µM (inactive) | – | > 100 µM (inactive) | > 100 | > 100 µM (inactive) | > 100 µM (inactive) | > 100 µM (inactive) |

From ChEMBL document CHEMBL1201862, “PubChem BioAssay data set” (2004)
